{"source": "paper PMC5007466", "about": "“VCP recruitment to mitochondria causes mitophagy impairment and neurodegeneration in models of Huntington's disease” (Nature Communications, 2016)", "key": {"[1]": {"test_system": "interaction of mtHtt with Tim23", "experiment": "Co-immunoprecipitation mtHtt/Tim23", "assay_type": "cell-based", "conditions": "HV-3 treatment; total cell lysates, IP/WB", "experimental": "(b) Stick drawings of VCP and Htt main domains. […] Immunoprecipitates were analysed by WB with the indicated antibodies. […] VCP mitochondrial levels were determined by WB. Loading control: VDAC. Data are mean±s.e.m. (g–i) ANOVA with Holm-Sidak post hoc test."}, "[2]": {"molecular_target": "T1, full-length mouse VCP/p97 (Mus musculus, UniProt Q01853)", "T1 construct": "The full-length mouse VCP/p97 (residues 2–806) was expressed with an N-terminal 6xHis-tag; 6xHis (N); host or cells: Escherichia coli Rosetta (DE3)", "T1 sequence (Q01853 2-806)": "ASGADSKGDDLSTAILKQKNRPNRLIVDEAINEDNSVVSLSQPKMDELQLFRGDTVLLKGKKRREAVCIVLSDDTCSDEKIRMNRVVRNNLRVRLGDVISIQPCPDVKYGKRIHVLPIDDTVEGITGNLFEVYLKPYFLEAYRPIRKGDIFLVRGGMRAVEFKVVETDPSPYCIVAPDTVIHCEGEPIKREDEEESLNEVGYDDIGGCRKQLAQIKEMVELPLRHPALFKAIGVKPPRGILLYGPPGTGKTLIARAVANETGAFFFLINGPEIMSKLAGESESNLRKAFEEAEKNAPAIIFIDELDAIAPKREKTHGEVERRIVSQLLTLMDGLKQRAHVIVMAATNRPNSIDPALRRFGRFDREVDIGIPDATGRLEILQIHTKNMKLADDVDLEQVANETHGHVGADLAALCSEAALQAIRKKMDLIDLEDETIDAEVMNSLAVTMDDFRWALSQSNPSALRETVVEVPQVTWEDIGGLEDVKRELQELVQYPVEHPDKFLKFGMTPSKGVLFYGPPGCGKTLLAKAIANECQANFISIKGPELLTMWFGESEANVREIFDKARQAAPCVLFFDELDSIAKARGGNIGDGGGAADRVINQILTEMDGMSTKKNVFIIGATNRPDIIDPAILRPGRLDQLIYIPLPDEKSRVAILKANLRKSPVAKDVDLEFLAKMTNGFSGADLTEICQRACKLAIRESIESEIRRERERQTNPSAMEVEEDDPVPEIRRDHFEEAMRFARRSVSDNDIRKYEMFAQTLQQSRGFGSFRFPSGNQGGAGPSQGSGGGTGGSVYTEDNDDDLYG", "experiment": "Isothermal titration calorimetry (ITC)", "assay_type": "binding", "conditions": "15 °C", "experimental": "The full-length mouse VCP/p97 (residues 2–806) was expressed with an N-terminal 6xHis-tag (Addgene: plasmid # 12373) in the Rosetta (DE3) strain of Escherichia coli (Novagen) as previously described. Briefly, the cells were grown in LB media supplemented with Kanamycin and induced at OD∼1.0 for 16 h at 18 °C. Cells were homogenized in Buffer A (500 mM KCl, 25 mM Hepes pH 8.0, and 2 mM β-mercaptoethanol) in the presence of EDTA-free Complete Protease Inhibitor (Roche) and 2 mM PMSF. The lysate was cleared by centrifugation at 45,000 g for 1 h at 4 °C. Supernatant was incubated with 2 ml of Ni-NTA agarose resin (Qiagen) for 2 h at 4 °C. The resin was washed with Buffer A containing 50 mM imidazole and eluted with Buffer A containing 400 mM imidazole. VCP protein was further purified by passing through Superdex 200 increase 10/300 GL (GE Healthcare) size exclusion column equilibrated with Buffer B (250 mM KCL, 25 mM Hepes pH 8.0, 2 mM β-mercaptoethanol and 1 mM MgCl2). The fractions containing the pure sample, as determined by SDS–PAGE analysis, were pooled and concentrated to a final concentration of ∼3–5 mg ml^−1.\nBinding of HV-3 peptide to VCP was measured by isothermal titration calorimetry on a MicroCal ITC200 (GE Healthcare). Before the calorimetric titrations, the protein was exchanged into Buffer C (100 mM NaCl, 10 mM Hepes, pH 8.0) on a PD-10 column (Amersham Biosciences) and concentrated to ∼5–6 mg ml^−1. The final concentration of protein in the cell (∼60–70 μM) was determined on a NanoDrop Spectrophotometer (Thermo Scientific NanoDrop 2000) using a molecular weight of 89.32 KDa and a molar extinction coefficient of […]. The HV-3 peptide was dissolved in Buffer C to a final concentration of 2 mM and loaded into the syringe. The measurements were made at a constant cell temperature of 15 °C and repeated at least three times. Thirty successive injections of 1.2 μl each were titrated into the cell with constant stirring at 1,000 r.p.m. An equilibration time of 150 s was set between consecutive injections. The binding isotherms were analysed with the MicroCal Origin software. For measurements of heat of dilution, the protein sample in the cell was replaced by Buffer C and all other conditions were kept identical."}, "R6/2 mice": {"test_system": "R6/2 mice", "experiment": "Hindlimb clasping (tail suspension test)", "assay_type": "in vivo, mouse", "conditions": "R6/2, 8 to 11 weeks of age, 3 mg kg^−1 per day, n=15, versus TAT", "experimental": "Male hemizygous R6/2 mice (Tg) and their age-matched wt littermates (5-week-old) were implanted with a 28-day osmotic pump (Alzet, Cupertino CA) containing TAT control peptide or HV-3 peptide, which delivered peptides to the mice at a rate of 3 mg kg^−1 per day. The first pump was implanted subcutaneously in the back of 5-week-old mice between the shoulders and replaced once, after 4 weeks.\nHindlimb clasping was assessed with the tail suspension test once a week from the ages 8 to 11 weeks in R6/2 mice. Mice were suspended by the tail for 60 s and the latency for the hindlimbs or all four paws to clasp was recorded using the score system[67]: Clasping over 10 s, score 3; 5–10 s, score 2; 0–5 s, score 1; 0 s, score 0."}, "[3]": {"test_system": "wt mice (YAC128 littermates)", "experiment": "Motor activity of wt littermates of YAC128", "assay_type": "in vivo, mouse", "conditions": "3 to 12 months of age, 3 mg/kg/day", "experimental": "YAC128 mice (Tg) and their age-matched wt littermates were implanted with an osmotic pump containing TAT control peptide or HV-3 peptide (3 mg/kg/day, each) starting from the age of 3 months. The pump was replaced once every month. By the age of 12 months, the treatments were terminated and the mouse samples were harvested for analysis.\nGross locomotor activity was assessed in R6/2 mice and age-matched wt littermates at the ages of 13 weeks and in YAC128 mice and age-matched wt littermates at the ages of 2, 3, 6, 9, and 12 months. In an activity chamber (Omnitech Electronics, Inc), mice were placed in the center of the chamber and allowed to explore while being tracked by an automated beam system (Vertax, Omnitech Electronics Inc). Distance moved, horizontal, vertical, and rearing activities were recorded. Because R6/2 mice were sensitive to changes in environment and handling, we only conducted one-hour locomotor activity analysis for R6/2 mice and wt littermates. We performed 24 h of locomotor activity analysis for YAC128 mice and their wt littermates.\nThe motor coordination and balance of YAC128 mice were tested on an accelerating Rotarod (IITC Life Sciences, Serials 8) at the ages of 2, 3, 6, 9 and 12 months. Training and baseline testing for motor function tasks were conducted at 2 months of age. […]"}}, "data": [{"smiles": "CSCC[C@H](NC(=O)[C@@H](NC(=O)[C@H](CC(C)C)NC(=O)[C@@H](NC(=O)[C@H](Cc1c[nH]cn1)NC(=O)CCCCCNC(=O)[C@H](CCCNC(=N)N)NC(=O)[C@H](CCCNC(=N)N)NC(=O)[C@H](CCCNC(=N)N)NC(=O)[C@H](CCC(N)=O)NC(=O)[C@H](CCCNC(=N)N)NC(=O)[C@H](CCCNC(=N)N)NC(=O)[C@H](CCCCN)NC(=O)[C@H](CCCCN)NC(=O)[C@H](CCCNC(=N)N)NC(=O)CNC(=O)[C@@H](N)Cc1ccc(O)cc1)C(C)C)C(C)C)C(=O)N[C@@H](CS)C(=O)N[C@@H](C)C(=O)N[C@H](C(N)=O)[C@@H](C)O", "note": "[HV-3]", "values": [{"measurement": "interaction of mtHtt with Tim23", "setting": "[1]", "result": "did not influence the interaction of mtHtt with Tim23"}, {"measurement": "Kd", "setting": "[2]; 100 mM NaCl, 10 mM Hepes pH 8.0, protein ∼60–70 μM, HV-3 2 mM in syringe, repeated at least three times", "result": "17.9 ± 7", "unit": "µM"}, {"measurement": "n (stoichiometry)", "setting": "[2]; pH 8.0", "result": "2.02±0.23"}, {"measurement": "ΔH", "setting": "[2]; pH 8.0", "result": "-2.145 ± 0.65", "unit": "kcal/mol"}, {"measurement": "ΔS", "setting": "[2]; pH 8.0", "result": "13.97±3.4", "unit": "cal mol^−1 deg^−1"}, {"measurement": "severity of clasping behaviour", "setting": "R6/2 mice", "result": "significantly lower over the 4-week observation period"}, {"measurement": "motor activity of wt mice", "setting": "[3]", "result": "did not affect motor activity in wt mice"}]}]}
